We go through 23 molecules from patent US11407748B2, “Substituted pyrido[1,2-a]pyrimidines and pyrazino[1,2-a]pyrimidines for enhancing AMPA receptor function” (Takeda Pharmaceutical Company Limited, priority 2017, dated 2022).

The experiment concerns the target T1, hGluR1 flip (Homo sapiens, UniProt P42261).
T1 construct: expressed in transfected cells; host or cells: CHO-K1
The experiment can be described thus: AMPA receptor function-enhancing activity using calcium influx as index. Type of experiment: cell-based. The note with it: test compound 30 μM with 3 mM glutamic acid; CHO-K1/GluR1 flip/stargazin-expressing cells; 100% = 3 mM glutamic acid + 300 μM cyclothiazide, 0% = 3 mM glutamic acid alone. The text has this:
Experimental Example 1 Measurement Method of AMPA Receptor Function-Enhancing Activity of Compound Using Calcium Influx as Index
(1) Construction of Expression Gene
Human GluR^1 flip cDNA was amplified by PCR method using forward primer […] (SEQ ID NO: 1) and reverse primer […] (SEQ ID NO: 2) artificially synthesized using human brain-derived cDNA (BD Bioscience) as a template. The amplified product was digested with restriction enzymes EcoRI, NotI (TAKARA SHUZO CO. LTD.) and incorporated into the same site of pcDNA3.1 (+) (Invitrogen) to construct pcDNA3.1(+)/human GluR1 flip gene. Human stargazin cDNA was amplified by PCR method using forward primer […] (SEQ ID NO: 3) and reverse primer […] (SEQ ID NO: 4) artificially synthesized using human hippocampus cDNA as a template. The amplified product was digested with restriction enzymes XhoI, BamHI (TAKARA SHUZO CO. LTD.) and incorporated into the same site of pcDNA3.1(−) (Invitrogen) to construct pcDNA3.1 Zeo(−)/human stargazing gene.
(2) Construction of GluR1 Flip/Stargazin Expressing Cell
CHO-K1 cells passaged in a culture medium (Ham's F12 medium (Invitrogen) added with 10% inactivated fetal bovine serum (Morgate) and penicillin, streptomycin (Invitrogen)) were detached using 0.05% trypsin and 0.53 mM EDTA (Invitrogen) diluted with D-PBS(−). The detached cells were suspended in a culture medium, and recovered by centrifugation at 1,000 rpm. The recovered cells were re-suspended in D-PBS(−) and added into 0.4 cm electroporation cuvette (BioRad). pcDNA3.1(+)/human GluR1 flip gene (5 μg) and pcDNA3.1 Zeo(−)/human stargazin gene (15 μg) were added, and introduced into CHO-K1 cells under the conditions of 950 μFd, […] and using Gene Pulser II (BioRad). The introduced cells were cultured overnight in a culture medium. The next day, using a selection medium (culture medium added with zeocin (Invitrogen) at 250 μg/mL), the cells were plated in a 96 well plate at 250 cells/well. The clones showing drug resistance were selected, and GluR1 flip/stargazin expression clones were selected by an assay method shown below using calcium influx as an index.
(3) Measurement Method of AMPA Receptor Function-Enhancing Activity of Compound, Using Calcium Influx as an Index
CHO-K1/GluR1 flip/stargazin-expressing cells were plated on a 384 well black bottom transparent plate, and cultured for 2 days in a CO2 incubator (SANYO ELECTRIC Co. Ltd.) at 37° C. The medium of the cell plate was removed. A calcium indicator (Calcium5 Assay Kit, Molecular Devices) was diluted with an assay buffer (HESS (Thermo Fisher Scientific), 0.1% BSA (Merck Millipoer) and 10 mM HEPES (Thermo Fisher Scientific)), and 1.25 mM probenecid (Dojindo Laboratories) was added thereto. The mixture prepared above was added at 30 μL/well (100 μL/well in case of 96 wells) to the well, and the well was left standing in 37° C., CO2 incubator for 1 hr. The cell plate was set in CellLux (PerkinElmer), a mixture (15 μL) (50 μL/well in case of 96 wells) of 9 mM glutamic acid (final concentration 3 mM) diluted with an assay buffer and a test compound (test compound concentration 30 μM) was added thereto, and variation in the amount of fluorescence was measured for 3 min. The variation of fluorescence level of a well added with final concentration 3 mM of glutamic acid and 300 μM cyclothiazide (TOCRIS) was defined as 100%, the variation of fluorescence level of a well added with final concentration 3 mM of glutamic acid alone was defined as 0%, and the activity of the compound was calculated by the following formula. activity (%)=(X−C)/(T−C)×100 • T: variation of fluorescence level of well added with final concentration 3 mM of glutamic acid and 300 μM cyclothiazide • C: variation of fluorescence level of well added with final concentration 3 mM of glutamic acid alone • X: variation of fluorescence level of well added with test compound

T1 sequence (P42261 19-906 isoform P42261-2 limits assumed): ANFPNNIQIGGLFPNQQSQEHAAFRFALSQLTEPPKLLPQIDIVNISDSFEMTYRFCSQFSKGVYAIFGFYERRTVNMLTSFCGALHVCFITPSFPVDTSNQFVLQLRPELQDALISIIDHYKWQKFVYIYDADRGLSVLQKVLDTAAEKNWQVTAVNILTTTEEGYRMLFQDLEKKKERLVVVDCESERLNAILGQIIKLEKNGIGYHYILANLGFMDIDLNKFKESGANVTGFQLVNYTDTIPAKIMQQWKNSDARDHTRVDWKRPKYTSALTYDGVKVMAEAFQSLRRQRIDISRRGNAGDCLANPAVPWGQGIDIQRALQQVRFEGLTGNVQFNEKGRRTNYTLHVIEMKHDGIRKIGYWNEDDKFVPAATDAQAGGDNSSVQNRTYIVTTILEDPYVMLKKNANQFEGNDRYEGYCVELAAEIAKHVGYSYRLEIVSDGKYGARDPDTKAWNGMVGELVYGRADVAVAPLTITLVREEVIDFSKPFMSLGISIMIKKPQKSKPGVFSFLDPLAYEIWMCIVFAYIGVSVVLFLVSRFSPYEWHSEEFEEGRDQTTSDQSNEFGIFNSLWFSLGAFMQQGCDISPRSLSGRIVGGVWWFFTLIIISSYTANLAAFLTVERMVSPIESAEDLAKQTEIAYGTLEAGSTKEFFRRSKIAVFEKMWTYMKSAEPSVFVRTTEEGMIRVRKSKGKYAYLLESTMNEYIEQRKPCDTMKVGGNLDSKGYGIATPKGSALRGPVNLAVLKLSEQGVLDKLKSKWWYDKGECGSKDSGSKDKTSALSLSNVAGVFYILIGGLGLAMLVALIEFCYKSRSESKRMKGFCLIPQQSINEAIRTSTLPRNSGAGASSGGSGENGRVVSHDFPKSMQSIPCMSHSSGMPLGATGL
T1 sequence (Q9Y698 whole entry partner): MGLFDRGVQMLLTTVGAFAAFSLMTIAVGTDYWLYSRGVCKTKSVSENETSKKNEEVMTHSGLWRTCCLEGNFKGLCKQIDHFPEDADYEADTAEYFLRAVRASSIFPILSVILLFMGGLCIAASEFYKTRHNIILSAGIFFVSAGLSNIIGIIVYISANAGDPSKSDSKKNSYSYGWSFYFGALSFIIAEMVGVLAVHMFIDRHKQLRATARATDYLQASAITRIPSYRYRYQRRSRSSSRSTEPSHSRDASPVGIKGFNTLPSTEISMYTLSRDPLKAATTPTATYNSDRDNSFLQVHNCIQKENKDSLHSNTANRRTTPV

`CN(CC1CC1)C(=O)c1ccc(-c2cccn3c(=O)c(Br)c(C(F)(F)F)nc23)cc1F` [Example 96, 4-(3-bromo-4-oxo-2-(trifluoromethyl)-4H-pyrido[1,2-a]pyrimidin-9-yl)-N-(cyclopropylmethyl)-2-fluoro-N-methylbenzamide]: the activation at 30 µM worked out at 97.2%. On to `O=C(c1ccc(-c2cccn3c(=O)c(Cl)c(C(F)(F)F)nc23)cc1F)N1CCCOCC1` [Example 81, 3-chloro-9-(3-fluoro-4-(1,4-oxazepan-4-ylcarbonyl)phenyl)-2-(trifluoromethyl)-4H-pyrido[1,2-a]pyrimidin-4-one], for which the activation at 30 µM was found to be 95.1%. In the case of `Cc1c(C(F)(F)F)nc2c(-c3ccc(C(=O)N4CCOC(C(F)F)C4)cc3)cccn2c1=O` (centres unmarked) [Example 23, 9-(4-((2-(difluoromethyl)morpholin-4-yl)carbonyl)phenyl)-3-methyl-2-(trifluoromethyl)-4H-pyrido[1,2-a]pyrimidin-4-one], the activation at 30 µM is 83.5%.

As for `O=C(NCC(F)F)c1ccc(-c2cccn3c(=O)cc(C(F)(F)F)nc23)cc1F` [Example 42], the activation at 30 µM came to 83.6%. The same measure, in the same setting: then `C[C@H]1CN(C(=O)c2ccc(-c3cccn4c(=O)c(Br)c(C(F)(F)F)nc34)cc2F)CCO1` [Example 73, 3-bromo-9-(3-fluoro-4-(((2S)-2-methylmorpholin-4-yl)carbonyl)phenyl)-2-(trifluoromethyl)-4H-pyrido[1,2-a]pyrimidin-4-one], with 87.9%.

Take `Cc1c(C(F)(F)F)nc2c(-c3ccc(C(=O)N4CCOCC4)c(F)c3)cccn2c1=O` [Example 45, 9-(3-fluoro-4-(morpholin-4-ylcarbonyl)phenyl)-3-methyl-2-(trifluoromethyl)-4H-pyrido[1,2-a]pyrimidin-4-one]: the activation at 30 µM is 82.6%. Consider `O=C(c1ccc(-c2cccn3c(=O)cc(C(F)(F)F)nc23)cc1F)N1CCc2cccnc21` [Example 78, 9-(4-(2,3-dihydro-1H-pyrrolo[2,3-b]pyridin-1-ylcarbonyl)-3-fluorophenyl)-2-(trifluoromethyl)-4H-pyrido[1,2-a]pyrimidin-4-one], for which the activation at 30 µM was 94.2%. As for `C[C@@H]1CN(C(=O)c2ccc(-c3cccn4c(=O)c(Br)c(C(F)(F)F)nc34)cc2)CCO1` [Example 49, 3-bromo-9-(4-(((2R)-2-methylmorpholin-4-yl)carbonyl)phenyl)-2-(trifluoromethyl)-4H-pyrido[1,2-a]pyrimidin-4-one], the activation at 30 µM is 71.6%. `N#CC1CCCN(C(=O)c2ccc(-c3cccn4c(=O)c(Cl)c(C(F)(F)F)nc34)cc2)C1` (centres unmarked) [Example 38, 1-(4-(3-chloro-4-oxo-2-(trifluoromethyl)-4H-pyrido[1,2-a]pyrimidin-9-yl)benzoyl)piperidine-3-carbonitrile]: the activation at 30 µM came to 99.3%. On the same count and under the same terms, as for `O=C(c1ccc(-c2cccn3c(=O)c(Br)c(C(F)(F)F)nc23)cc1)N1CCOC(C(F)F)C1` (centres unmarked) [Example 103, 3-bromo-9-(4-((2-(difluoromethyl)morpholin-4-yl)carbonyl)phenyl)-2-(trifluoromethyl)-4H-pyrido[1,2-a]pyrimidin-4-one], the figure is 88.6%. For `O=C(N[C@H]1CCCOC1)c1ccc(-c2cccn3c(=O)c(Br)c(C(F)(F)F)nc23)cc1F` [Example 110, 4-(3-bromo-4-oxo-2-(trifluoromethyl)-4H-pyrido[1,2-a]pyrimidin-9-yl)-2-fluoro-N-((3S)-tetrahydro-2H-pyran-3-yl)benzamide], the activation at 30 µM amounted to 86.8%.

As for `CCN(C(=O)c1ccc(-c2cccn3c(=O)c(Br)c(C(F)(F)F)nc23)cc1F)C1CC1` [Example 95, 4-(3-bromo-4-oxo-2 (trifluoromethyl)-4H-pyrido[1,2 a]pyrimidin-9-yl)-N-cyclopropyl-N-ethyl-2-fluorobenzamide], the activation at 30 µM was determined as 83.2%. Take `Cc1c(C(F)(F)F)nc2c(-c3ccc(C(=O)N4CC(F)(F)C4)c(F)c3)cccn2c1=O` [Example 129, 9-(4-((3,3-difluoroazetidin-1-yl)carbonyl)-3-fluorophenyl)-3-methyl-2-(trifluoromethyl)-4H-pyrido[1,2-a]pyrimidin-4-one]: the activation at 30 µM came out at 80.4%.

On to `O=C(c1ccc(-c2cccn3c(=O)c(Br)c(C(F)(F)F)nc23)cc1)N1CCOC2CC21` (centres unmarked) [Example 128, 3-bromo-9-(4-(2-oxa-5 azabicyclo[4.1.0]hept-5-ylcarbonyl)phenyl)-2-(trifluoromethyl)-4H-pyrido[1,2-a]pyrimidin-4-one], for which the “hGluR1 flip/30 μM (%)” value stood at 70.9%.

As to `O=C(c1ccc(-c2cccn3c(=O)c(Br)c(C(F)(F)F)nc23)cc1)N1CCOC(F)(F)C1` [Example 19, 3-bromo-9-(4-((2,2-difluoromorpholin-4-yl)carbonyl)phenyl)-2-(trifluoromethyl)-4H-pyrido[1,2-a]pyrimidin-4-one], the activation at 30 µM worked out at 79.4%. With `O=C(NCC1CC1)c1ccc(-c2cccn3c(=O)c(Br)c(C(F)(F)F)nc23)cc1F` [Example 70, 4-(3-bromo-4-oxo-2-(trifluoromethyl)-4H-pyrido[1,2-a]pyrimidin-9-yl)-N-(cyclopropylmethyl)-2-fluorobenzamide], the activation at 30 µM was 71.4%. Take `O=C(c1ccc(-c2cccn3c(=O)c(Br)c(C(F)(F)F)nc23)cc1F)N1CCOC(F)(F)C1` [Example 71, 3-bromo-9-(4-((2,2-difluoromorpholin-4-yl)carbonyl)-3-f1uorophenyl)-2-(trifluoromethyl)-4H-pyrido[1,2-a]pyrimidin-4-one]: the activation at 30 µM turned out to be 72.3%. The same measure, in the same setting: as for `O=C(c1ccc(-c2cccn3c(=O)cc(C(F)(F)F)nc23)cc1)N1CCCC(O)(C(F)(F)F)C1` (centres unmarked) [Example 36, 9-(4-((3-hydroxy-3-(trifluoromethyl)piperidin-1-yl)carbonyl)phenyl)-2-(trifluoromethyl)-4H-pyrido[1,2-a]pyrimidin-4-one], the figure is 101%. Turning to `O=C(NC1CCOCC1)c1ccc(-c2cccn3c(=O)c(Cl)c(C(F)(F)F)nc23)cc1` [Example 131, 4-(3-chloro-4-oxo-2-(trifluoromethyl)-4H-pyrido[1,2-a]pyrimidin-9-yl)-N-(tetrahydro-2H-pyran-4-yl)benzamide], the activation at 30 µM came to 110%. As to `COC1CCN(C(=O)c2ccc(-c3cccn4c(=O)c(Br)c(C(F)(F)F)nc34)cc2F)CC1` [Example 88, 3-bromo-9-(3-fluoro-4-((4-methoxypiperidin-1-yl)carbonyl)phenyl)-2-(trifluoromethyl)-4H-pyrido[1,2-a]pyrimidin-4-one], the activation at 30 µM came to 90.3%. On to `O=C(NC1CCOCC1)c1ccc(-c2cccn3c(=O)c(Br)c(C(F)(F)F)nc23)cc1` [Example 57, 4-(3-bromo-4-oxo-2-(trifluoromethyl)-4H-pyrido[1,2-a]pyrimidin-9-yl)-N-(tetrahydro-2H-pyran-4-yl)benzamide], for which the activation at 30 µM was 78.7%. On the same count and under the same terms, as for `O=C(c1ccc(-c2cccn3c(=O)c(Cl)c(C(F)(F)F)nc23)cc1)N1CCOCC1` [Example 17, 3-chloro-9-(4-(morpholin-4-ylcarbonyl)phenyl)-2-(trifluoromethyl)-4H-pyrido[1,2-a]pyrimidin-4-one], the figure is 95.2%. Take `CO[C@@H]1CCN(C(=O)c2ccc(-c3cccn4c(=O)c(Br)c(C(F)(F)F)nc34)cc2F)C1` [Example 91, 3-bromo-9-(3-fluoro-4-(((3R)-3-methoxypyrrolidin-1-yl)carbonyl)phenyl)-2-(trifluoromethyl)-4H-pyrido[1,2-a]pyrimidin-4-one]: the activation at 30 µM was determined as 80.9%.
